For data set [1], the system named is centrosomes isolated from an EBV-transformed B-lymphoblastoid cell line. As to the kind of experiment: Centrosomal regrowth assay of aster formation from isolated centrosomes. The data set is classed as biochemical. As to conditions: 100 μM. The procedure: Centrosome isolation from an EBV-transformed B-lymphoblastoid cell line was performed following a slight modification of a literature procedure (See, for example, Moudjou and Bomens, 1994, Cell Biology: A Laboratory Handbook, p. 595. Academic Press, Inc, New York; and Cell Biology: A Laboratory Handbook, 1994).
Briefly, cells were grown to a density of 1×10^6 per ml. A total of 1×10^9 cells were treated for 1 hour with […] and […]. All subsequent procedures were performed at 4° C. Firstly, cells were transferred into sterile conical 50 ml tubes and sedimented at 1,200×g for 5 minutes. Cells were then washed twice with 50 ml of filtered tris buffered saline (10 mM Tris-HCl, pH 7.4, 150 mM NaCl, TBS) by gentle resuspension with a pasteur pipette and sedimented at 1,200×g for 5 minutes. Cells were next washed with 8% sucrose in ten times diluted TBS and sedimented at 1,200×g for 5 minutes. Cells were lysed with 100 ml of 1 mM Hepes lysis buffer (0.5% Nonidet-P40), 0.5mM MgCl2, 0.1% β-Mercaptoethanol, 1 mM PMSF, 100 μg/ml aprotinin, 1 μg/ml leupeptin and 1 μg/ml pepstatin), pH 7.2. The swollen nuclei were sedimented at 1,200×g for 10 minutes and the supernatant was filtered through a 70 μm nylon cell strainer. After the addition of 1M Hepes (10 mM final) and 5 μl of 10 mg/ml DNase (1 μg/ml final), the lysate was incubated for 30 minutes at 4° C. […]

For the next data set, the system named is MOLT-3 T-lymphoma cells. As to the kind of experiment: Confocal laser scanning microscopy of mitotic spindle, MOLT-3. The data set is classed as cell-based, human. Particulars: 100 μM. The protocol: (§1) Immunofluorenscence was used to examine the spindle features of human cancer cell lines treated with Compound 003 or 0.5% DMSO. Initially, cells at log phase were seeded onto sterile 22 mm coverslips in six -well culture plates. 24 hours later, the cells were treated with compound 003 for 2 hours at 37° C., 5% C02, fixed in methanol (−20° C. 15 min) followed by a 15 minute incubation with PBS +0.1.% Tx-100. The coverslips were incubated with antibodies raised against α-tubulin, γ-tubulin (Sigma Chemical Co., St Louis, Mo.) (40 min 37° C.), washed in PBS-Tx-100, and incubated with an appropriate secondary antibody conjugated to FITC (Jackson ImmunoResearch, Westgrove, Pa.). Cellular DNA was labeled with 5 μM TOTO3 (Molecular Probes, Eugene, Oreg.) for 20 minutes. Coverslips were immediately inverted onto slides in Vectashield (Vector Labs, Burlingame, Calif.) to prevent photobleaching, sealed with nail varnish and stored at −20° C. The slides were examined using a Bio-Rad MRC-1024 Laser Scanning Confocal Microscope equipped with a Kr/Ar laser (BioRad, Hercules, Calif.) mounted on a Nikon Eclipse E800 upright microscope with high numerical aperture objectives (Nikon, Melville, N.Y.). Digital data were processed using Lasersharp (BioRad) and Adobe Photoshop software (Adobe Systems, Mountain View, Calif.). […]

Data set [2] deals with PC-3 prostate cancer cells. As to the kind of experiment: Confocal laser scanning microscopy of mitotic spindle, PC-3. The data set is classed as cell-based, human. Particulars: 100 μM. The procedure:
as §1

A short description of data set [3]: Stability in simulated gastric fluid. The data set is classed as in vitro ADME. The protocol:
(§2) Plasma samples, simulated gastric fluid and intestinal fluids (United State Pharmacopeia XXII methods) were separately spiked with COMPOUND 003 to yield final concentrations of 500 μM. Spiked samples were incubated at 37° C. At a predetermined time (5, 10, 15, 30 60 and 120 minutes), an aliquot (200 μl) of the spiked plasma sample was extracted as described above.

Data set [4] in a line: Stability in simulated intestinal fluid. It is filed as in vitro ADME. The procedure:
as §2

`COC(=O)C(C)NP(=O)(OCC1OC(n2cc(C)c(=O)[nH]c2=O)CC1N=[N+]=[N-])Oc1ccc(OC)cc1` (stereo not shown) [Compound 003, 3′-azidothymidine 5′-[p-methoxyphenylmethoxyalaninyl phosphate]]: the “nucleation of microtubules and aster growth from isolated centrosomes” value in data set [1] was “inhibited the ability of the centrosomes to nucleate and sufficiently grow microtubule asters”. Further, the mitotic spindle formation result (with MOLT-3 T-lymphoma cells; in data set [2]) was “induced aberrant multipolar spindle formation” in each case. The decomposition product entry in data set [3] (gastric fluid) is “quickly decomposed to yield a intermediate product”; in data set [4] (intestinal fluid), “decomposed to form ala-AZT-MP”. The stability entry is recorded as “unstable” in data set [3] (simulated gastric fluid, 500 μM, 37° C.) and “unstable” in data set [4] (simulated intestinal fluid, 500 μM, 37° C.).

The record behind these values is patent publication US20060046972A1, “Cytotoxic nucleoside analog compound 003 for treating cancer” (Parker Hughes Institute, priority 2004, published 2006).
